Reference: ChEMBL document CHEMBL5360624, “Exploitation of Proximity-Mediated Effects in Drug Discovery: An Update of Recent Research Highlights in Perturbing Pathogenic Proteins and Correlated Issues” (J Med Chem, 2023)

Assays:
[1] = molecular target: T1, von Hippel-Lindau disease tumor suppressor/SWI/SNF-related matrix-associated actin-dependent regulator of chromatin subfamily A member 2 (Homo sapiens, UniProt P51531+P40337); test: Protac activity at VHL/SMARCA2 (unknown origin) assessed as degradation of SMARCA2; assay type: protein assay
Target sequence in this assay (P51531 whole entry): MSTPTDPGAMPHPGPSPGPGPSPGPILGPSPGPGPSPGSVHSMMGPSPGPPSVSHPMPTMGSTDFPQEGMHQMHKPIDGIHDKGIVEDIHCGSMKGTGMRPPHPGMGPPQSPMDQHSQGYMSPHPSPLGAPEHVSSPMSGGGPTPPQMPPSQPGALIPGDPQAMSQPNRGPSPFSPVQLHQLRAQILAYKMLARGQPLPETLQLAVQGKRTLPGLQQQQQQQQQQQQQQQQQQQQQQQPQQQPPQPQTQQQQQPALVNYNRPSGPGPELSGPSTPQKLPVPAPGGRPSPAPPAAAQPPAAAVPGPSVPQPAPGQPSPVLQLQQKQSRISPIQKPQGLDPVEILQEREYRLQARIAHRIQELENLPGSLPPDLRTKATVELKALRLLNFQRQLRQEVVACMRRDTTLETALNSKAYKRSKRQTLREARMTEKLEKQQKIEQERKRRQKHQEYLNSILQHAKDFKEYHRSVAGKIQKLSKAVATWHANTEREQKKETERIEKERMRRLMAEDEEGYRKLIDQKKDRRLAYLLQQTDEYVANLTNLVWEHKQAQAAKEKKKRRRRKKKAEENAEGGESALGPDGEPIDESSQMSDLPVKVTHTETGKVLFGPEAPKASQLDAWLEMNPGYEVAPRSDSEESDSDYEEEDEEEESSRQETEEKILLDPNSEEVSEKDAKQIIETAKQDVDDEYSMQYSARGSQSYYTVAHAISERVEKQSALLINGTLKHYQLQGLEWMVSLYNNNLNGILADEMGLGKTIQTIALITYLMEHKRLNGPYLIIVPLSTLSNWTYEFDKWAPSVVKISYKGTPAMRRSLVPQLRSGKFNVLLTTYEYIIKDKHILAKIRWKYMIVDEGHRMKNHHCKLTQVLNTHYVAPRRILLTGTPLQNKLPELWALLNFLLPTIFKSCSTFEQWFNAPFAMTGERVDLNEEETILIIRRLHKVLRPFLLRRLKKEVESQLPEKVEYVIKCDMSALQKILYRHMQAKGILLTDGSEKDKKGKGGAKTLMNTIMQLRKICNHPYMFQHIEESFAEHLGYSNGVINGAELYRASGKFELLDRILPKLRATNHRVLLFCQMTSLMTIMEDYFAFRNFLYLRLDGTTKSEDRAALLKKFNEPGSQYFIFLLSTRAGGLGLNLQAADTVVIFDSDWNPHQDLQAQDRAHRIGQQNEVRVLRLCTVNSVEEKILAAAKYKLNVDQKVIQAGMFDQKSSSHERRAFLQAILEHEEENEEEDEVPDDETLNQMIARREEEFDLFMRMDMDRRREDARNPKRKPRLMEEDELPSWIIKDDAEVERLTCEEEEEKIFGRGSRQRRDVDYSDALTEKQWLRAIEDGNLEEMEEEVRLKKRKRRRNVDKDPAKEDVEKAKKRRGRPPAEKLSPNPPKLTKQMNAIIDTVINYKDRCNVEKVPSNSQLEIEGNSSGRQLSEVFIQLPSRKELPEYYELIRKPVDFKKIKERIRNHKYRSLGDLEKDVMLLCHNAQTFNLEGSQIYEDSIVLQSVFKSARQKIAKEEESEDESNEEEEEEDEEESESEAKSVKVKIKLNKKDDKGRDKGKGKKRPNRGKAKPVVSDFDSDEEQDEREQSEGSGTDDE
Target sequence in this assay (P40337 whole entry): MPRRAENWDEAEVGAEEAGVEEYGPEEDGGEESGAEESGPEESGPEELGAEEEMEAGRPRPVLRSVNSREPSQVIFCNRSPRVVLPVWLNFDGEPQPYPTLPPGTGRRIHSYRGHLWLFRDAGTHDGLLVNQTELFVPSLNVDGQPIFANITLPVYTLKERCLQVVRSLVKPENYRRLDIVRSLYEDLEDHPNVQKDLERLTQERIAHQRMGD

[2] = molecular target: T1, von Hippel-Lindau disease tumor suppressor/SWI/SNF-related matrix-associated actin-dependent regulator of chromatin subfamily A member 2; test: Protac activity at VHL/SMARCA2 (unknown origin) assessed as degradation of SMARCA2 relative to control; assay type: protein assay
Target sequence in this assay (P40337 whole entry, looked up): as the sequence (P40337 whole entry) above
Target sequence in this assay (P51531 whole entry, looked up): as the sequence (P51531 whole entry) above

[3] = molecular target: SWI/SNF-related matrix-associated actin-dependent regulator of chromatin subfamily A member 2 (Homo sapiens, UniProt P51531); test: Inhibition of SMARCA2 (unknown origin) assessed as dissociation constant
Sequence of SWI/SNF-related matrix-associated actin-dependent regulator of chromatin subfamily A member 2 (P51531 whole entry): as above

[4] = molecular target: von Hippel-Lindau disease tumor suppressor/SWI/SNF-related matrix-associated actin-dependent regulator of chromatin subfamily A member 4 (Homo sapiens, UniProt P51532+P40337); test: Protac activity at VHL/SMARCA4 in human RKO cells assessed as degradation of SMARCA4; assay type: cell-based
Sequence of von Hippel-Lindau disease tumor suppressor/SWI/SNF-related matrix-associated actin-dependent regulator of chromatin subfamily A member 4 (P51532 whole entry): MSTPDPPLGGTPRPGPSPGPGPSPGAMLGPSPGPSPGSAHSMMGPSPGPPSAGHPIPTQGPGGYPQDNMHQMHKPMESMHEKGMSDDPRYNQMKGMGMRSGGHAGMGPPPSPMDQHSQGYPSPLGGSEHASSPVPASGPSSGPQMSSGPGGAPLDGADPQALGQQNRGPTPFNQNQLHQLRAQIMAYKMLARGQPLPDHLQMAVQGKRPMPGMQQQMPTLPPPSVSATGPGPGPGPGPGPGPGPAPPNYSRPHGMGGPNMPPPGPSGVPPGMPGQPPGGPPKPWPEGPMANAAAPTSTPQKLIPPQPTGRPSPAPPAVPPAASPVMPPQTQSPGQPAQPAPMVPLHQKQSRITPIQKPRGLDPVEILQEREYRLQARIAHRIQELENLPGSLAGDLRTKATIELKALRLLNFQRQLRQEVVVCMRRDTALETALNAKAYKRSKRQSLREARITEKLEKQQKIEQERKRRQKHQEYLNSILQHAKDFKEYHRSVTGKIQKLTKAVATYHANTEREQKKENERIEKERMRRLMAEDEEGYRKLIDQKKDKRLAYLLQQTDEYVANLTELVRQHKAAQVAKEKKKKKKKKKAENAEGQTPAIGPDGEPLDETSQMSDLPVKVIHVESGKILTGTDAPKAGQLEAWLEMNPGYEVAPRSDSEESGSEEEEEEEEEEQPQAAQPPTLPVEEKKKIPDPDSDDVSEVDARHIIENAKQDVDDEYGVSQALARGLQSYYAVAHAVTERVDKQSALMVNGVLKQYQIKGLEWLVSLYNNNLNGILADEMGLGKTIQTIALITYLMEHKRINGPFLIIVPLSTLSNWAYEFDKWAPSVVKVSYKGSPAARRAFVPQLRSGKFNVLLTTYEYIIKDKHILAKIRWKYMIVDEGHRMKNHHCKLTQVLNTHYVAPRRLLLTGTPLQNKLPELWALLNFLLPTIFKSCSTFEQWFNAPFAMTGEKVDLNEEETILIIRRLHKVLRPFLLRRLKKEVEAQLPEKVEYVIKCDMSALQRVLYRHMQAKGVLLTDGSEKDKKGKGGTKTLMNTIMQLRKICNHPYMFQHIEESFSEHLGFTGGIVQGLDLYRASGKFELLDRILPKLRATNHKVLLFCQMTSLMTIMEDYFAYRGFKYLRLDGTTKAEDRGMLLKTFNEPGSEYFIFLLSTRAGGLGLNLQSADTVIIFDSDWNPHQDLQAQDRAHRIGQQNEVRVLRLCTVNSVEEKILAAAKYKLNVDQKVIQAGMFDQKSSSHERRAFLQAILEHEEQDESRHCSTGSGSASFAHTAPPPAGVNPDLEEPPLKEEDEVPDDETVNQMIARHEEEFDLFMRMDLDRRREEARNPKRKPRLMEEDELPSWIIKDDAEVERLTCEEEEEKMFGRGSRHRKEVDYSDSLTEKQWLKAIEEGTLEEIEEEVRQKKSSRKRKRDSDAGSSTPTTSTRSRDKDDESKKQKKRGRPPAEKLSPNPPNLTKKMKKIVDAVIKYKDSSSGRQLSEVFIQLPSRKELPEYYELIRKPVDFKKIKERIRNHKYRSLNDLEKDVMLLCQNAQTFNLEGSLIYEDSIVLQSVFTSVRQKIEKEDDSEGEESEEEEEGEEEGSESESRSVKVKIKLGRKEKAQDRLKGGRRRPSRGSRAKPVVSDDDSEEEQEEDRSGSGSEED
Sequence of von Hippel-Lindau disease tumor suppressor/SWI/SNF-related matrix-associated actin-dependent regulator of chromatin subfamily A member 4 (P40337 whole entry): as the sequence (P40337 whole entry) above

[5] = molecular target: T1, von Hippel-Lindau disease tumor suppressor/SWI/SNF-related matrix-associated actin-dependent regulator of chromatin subfamily A member 2; test: Protac activity at VHL/SMARCA2 in human RKO cells assessed as degradation of SMARCA2; assay type: cell-based
Target sequence in this assay (P51531 whole entry): as the sequence (P51531 whole entry) above
Target sequence in this assay (P40337 whole entry): as the sequence (P40337 whole entry) above

[6] = Oral bioavailability in NMRI mouse; assay type: ADME, organism-based; details: in vivo
Homo sapiens = species: Homo sapiens; test: Selectivity index, ratio of DC50 for VHL/SMARCA2 in human RKO cells to DC50 for VHL/SMARCA4 in human RKO cells; assay type: cell-based

Work on `Cc1ncsc1-c1ccc(CNC(=O)[C@@H]2C[C@@H](O)CN2C(=O)[C@@H](NC(=O)C2(F)CC2)C(C)(C)C)c(OCCCN2CCC(c3ccc4c(c3)n(C3CCCC3)c3nc(=O)c5c(Br)cccc5n43)CC2)c1` yielded a DC50 [1] of 78 nM and an Emax [2] of 46%.

`O=c1nc2n(C3CCCC3)c3cc(C4CCNCC4)ccc3n2c2cccc(Br)c12` gave a Kd [3] of 46 nM.

Molecule `Cc1ncsc1-c1ccc(CNC(=O)[C@@H]2C[C@@H](O)CN2C(=O)[C@@H](NC(=O)C2(F)CC2)C(C)(C)C)c(CC[C@H](C)CCN2CCC(c3ccc4c(c3)n(C3CCCC3)c3nc(=O)c5c(Br)cccc5n43)CC2)c1` has a DC50 [4] of 32 nM, a DC50 [5] of 1 nM and a bioavailability [6] of 22%. For the same molecule, the Selectivity Index (Homo sapiens) was > 30.
